Here are results for 16 compounds from US20260174769A1, “MACROCYCLIC COMPOUNDS AND METHODS OF USE” (AMGEN INC., priority 2022, published 2026).

Where a name gives a salt, the structure may show the parent alone. Read-outs that look alike come from different tables or passages of the source.

In assay [1] the test system is Phosphorylation of ERK1/2 in AsPC-1 cells. Put plainly: Phospho-ERK1/2 MSD Assay. The assay is classed as cell-based, human. The settings on record: read-out: 2 h p-ERK (AsPC-1 cells), IC50. The protocol:
Sixteen hours prior to compound treatment, AsPC-1 cells were seeded in 96-well cell culture plates at a density of 25,000 cells/well and incubated at 37° C., 5% CO2. A compound dose-response titration was diluted in growth media, added to appropriate wells of a cell culture plate, and then incubated at 37° C., 5% CO2 for 2 hours. […] Phosphorylation of ERK1/2 in compound-treated lysates was assayed using Phospho-ERK 1/2 Whole Cell Lysate kits (Meso Scale Discovery K151DWD) according to the manufacturer's protocol. Assay plates were read on a Meso Scale Discovery Sector Imager 6000, and data were analyzed using a 4-parameter logistic model to calculate IC50 values.

Assay [2] deals with GDP-bound KRAS protein (aa 1-169), containing both G12D and C118A amino acid substitutions (Homo sapiens, UniProt P01116, C118A/G12D). Put plainly: KRAS G12D Coupled Nucleotide Exchange Assay. It counts as biochemical. The protocol: KRAS G12D Coupled Nucleotide Exchange Assay
The assay plates were then read on a PerkinElmer En Vision Multilabel Reader, using AlphaScreen® technology, and data were analyzed using a 4-parameter logistic model to calculate IC50 values.

The target of assay [3] is His-tagged KRAS G12D protein (Homo sapiens, UniProt P01116, G12D). The assay can be described thus: KRAS G12D TR-FRET Assay. It counts as binding. Summed up:
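GDP-loaded His-KRAS G12D (20 nM in HEPES pH 7.4, MgCl2, NaCl, BSA, Tween-20, 10 μM GDP) preincubated with compound 30 min at room temperature, then 20 nM biotinylated KRPep-2d peptide added for 1 h. TR-FRET detection used Eu anti-His and streptavidin-d2, read after 1 h.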
In general terms: TR-FRET usually uses a lanthanide donor and a delayed reading to cut background.

For a further assay, the system named is AsPC-1 cells. Put plainly: AsPC-1 CTG Assay (CellTiter-Glo cell viability, 72 h). It counts as cell-based, human. The settings on record: Homo sapiens, ASPC1, 72 h, AsPC-1 cells, 72 h, read-out: G12D/C/V Cell Proliferation CTG (72 h) AsPC-1. How it is done: AsPC-1 and SW620 CTG Assay Protocols
Serially-diluted compound or DMSO was added to the cells, and plates were incubated at 37° C., 5% CO2 for 72 h. Cell viability was measured using a CellTiter-Glo® Luminescent Cell Viability Assay kit (Promega) according to the manufacturer's protocol. The luminescence signal of treated samples was normalized to DMSO control, and data were analyzed using a 4-parameter logistic model to calculate IC50 values.
(In general: In ATP-based viability assays light output follows the ATP content of the culture.)

The mark [4] stands for this setting: Homo sapiens, ASPC1, 2 h, AsPC-1 cells, 2 h compound treatment.
[5] abbreviates: 2 hours compound pre-incubation, SOS-mediated nucleotide exchange.
The mark [6] stands for this setting: read-out: KRAS G12D Binding IC50.
[7] abbreviates: Homo sapiens, ASPC1, 2 h, AsPC-1 cells, 2 h.
The mark [8] stands for this setting: TR-FRET, read-out: KRAS G12D Binding IC50.

On to `O=C1CCCCc2c(Cl)cc3[nH]ncc3c2-c2ncc3c(nc(OC[C@@]45CCCN4C[C@H](F)C5)nc3c2F)N2CCC3CCN1[C@H]3C2` (mixture of isomers) [Example 60], for which the IC50 in assay [1] (setting [4]) worked out at 12 nM; in assay [2] (setting [5]), 6 nM; in assay [3] (TR-FRET binding), 13 nM.
For `O=C1CCCc2c(Cl)cc3[nH]ncc3c2-c2ncc3c(nc(OC[C@@]45CCCN4C[C@H](F)C5)nc3c2F)N2CCCC(CC1)C2` (mixture of isomers) [Example 236] the same measures were 950 nM, 19 nM and 55 nM.
As to `O[C@@H]1C[C@H]2COCCCCc3c(Cl)cc4[nH]ncc4c3-c3ncc4c(nc(OC[C@@]56CCCN5C[C@H](F)C6)nc4c3F)N(C1)C2` (mixture of isomers) [Example 408, 2,2,2-trifluoroacetate salt], the IC50 turned out to be 52.4 nM in assay [1], 18 nM in assay [2] and 24 nM in assay [3] (setting [6]).
In the case of `O[C@H]1C[C@@H]2CN(C1)c1nc(OC[C@@]34CCCN3C[C@H](F)C4)nc3c(F)c(ncc13)-c1c(c(Cl)cc3[nH]ncc13)CCCc1nc2no1` (racemic) [Example 377, (rac-18R,20S)-9-chloro-31-fluoro-25-(((2R,7a.S)-2-fluorotetrahydro-1H-pyrrolo[1,2-a]pyrrol-7a(5H)-yl)methoxy)-15-oxa-5,6,16,22,24,26,30,33-octaazaheptacyclo[25.3.1.1~14,17~.1~18,22~.0~2,10~0~3.7~.0~23,28~]tritriaconta-1(31),2,4,7,9,14(33),16,23,25,27,29-undecaen-20-ol], the figures for the IC50 (with AsPC-1 cells (first value of the cell); in assay [1] (setting [7]); in assay [3] (setting [8])) were 125 nM, 9.9 nM and 5 nM, respectively.
Take `CC12COCCN(C1)c1nc(OC[C@@]34CCCN3C[C@H](F)C4)nc3cc(nnc13)-c1c(c(Cl)cc3[nH]ncc13)CCCOC(=O)O2` (single isomer, unassigned) [Example 363]: the IC50 in assay [2] (setting [5]) turned out to be 5630 nM; in assay [3] (TR-FRET binding), 20200 nM.
With `Cc1cc2[nH]ncc2c2c1CCCCC(=O)O[C@@H]1CCCN(C1)c1nc(OC[C@@]34CCCN3C[C@H](F)C4)nc3c(F)c-2ncc13` [Example 31, (17R)-30-Fluoro-24-(((2R,7aS)-2-fluorotetrahydro-1H-pyrrolo[1,2-a]pyrrol-7a(5H)-yl)methoxy)-9-methyl-16-oxa-5,6,21,23,25,29-hexaazahexacyclo[24.3.1.1˜17,21˜.0˜2,10˜.0˜3,7˜.0˜22,27˜]hentriaconta-1(30),2,4,7,9,22,24,26,28-nonaen-15-one bis(2,2,2-trifluoroacetate)], the IC50 amounted to 5 nM in assay [2] and 7 nM in assay [3] (setting [6]).
Turning to `Cc1cc2[nH]ncc2c2c1CCCOC(=O)CC1CCCN(C1)c1nc(OC[C@@]34CCCN3C[C@H](F)C4)nc3c(F)c-2ncc13` (stereo partly drawn) [Example 39], the IC50 in the assay on AsPC-1 cells (first value of cell) amounted to 191 nM; in assay [1] (setting [4]), 16 nM.
With `C[C@@]12CCCN(C1)c1nc(OC[C@@]34CCCN3C[C@H](F)C4)nc3c(F)c(ncc13)-c1cc(O)cc3ccc(F)c(c13)CCCC(=O)O2` [Example 43, (15R)-22,31-Difluoro-8-(((2R,7aS)-2-fluorotetrahydro-1H-pyrrolo[1,2-a]pyrrol-7a(5H)-yl)methoxy)-27-hydroxy-15-methyl-16-oxa-3,7,9,11-tetraazahexacyclo[19.7.1.1˜2,6˜.1˜11,15˜.0˜5,10˜.0˜25,29˜]hentriaconta-1(28),2(31),3,5,7,9,21,23,25(29),26-decaen-17-one bis(2,2,2-trifluoroacetate)], the IC50 in the assay with AsPC-1 cells (first value of cell) was 92 nM; in assay [1] (setting [4]), 13 nM; in assay [2] (setting [5]), 2 nM; in assay [3] (TR-FRET binding), 4 nM.
For `CC1COC(=O)C[C@@H]2CCCN(C2)c2nc(OC[C@@]34CCCN3C[C@H](F)C4)nc3c(F)c(ncc23)-c2c(c(Cl)cc3[nH]ncc23)C1` (stereo partly drawn) [Example 91] the same measures were 280 nM, 27 nM, 2 nM and 4 nM.
For the compound `O=C1OCCCc2c(Cl)cc3[nH]ncc3c2-c2ncc3c(nc(OC[C@H]4CC[C@@H]5COCCN54)nc3c2F)N2CCOC[C@H](C2)O1` [Example 185, (26S)-18-chloro-32-fluoro-4-((6R,8aR)-hexahydro-1H-pyrrolo[2,1-c][1,4]oxazin-6-ylmethoxy)-23,25,28-trioxa-1,3,5,9,14,15-hexaazahexacyclo[24.4.1.1~6,10~.0~2,7~.0~11,19~.0~12,16~]dotriaconta-2,4,6,8,10(32),11,13,16,18-nonaen-24-one], the figures for the IC50 in assay [2] (setting [5]) and in assay [3] (TR-FRET binding) were 5 nM and 6 nM, respectively.
For the compound `O=C1OCCCc2c(Cl)cccc2-c2ncc3c(nc(OC[C@@]45CCCN4C[C@H](F)C5)nc3c2F)N2CCOC[C@H](C2)O1` [Example 186, (23S)-15-chloro-29-fluoro-4-(((2R,7aS)-2-fluorotetrahydro-1H-pyrrolo[1,2-a]pyrrol-7a(5H)-yl)methoxy)-20,22,25-trioxa-1,3,5,9-tetraazapentacyclo[21.4.1.1~6,10~.0~2,7~.0~11,16~]nonacosa-2,4,6,8,10(29),11,13,15-octaen-21-one], the IC50 in the assay on AsPC-1 cells (first value of cell) came to 1950 nM; in assay [1] (setting [4]), 200 nM; in assay [3] (TR-FRET binding), 12 nM.
Take `O=C1OCCCc2c(Cl)cc3[nH]ncc3c2-c2ncc3c(nc(OC[C@@]45CCCN4C[C@H](F)C5)nc3c2F)N2CCC[C@]3(C2)C[C@H](C3)O1` [Example 323, (1R,3S)-11-chloro-33-fluoro-25-(((2R,7aS)-2-fluorotetrahydro-1H-pyrrolo[1,2-a]pyrrol-7a(5H)-yl)methoxy)-4,6-dioxa-14,15,20,24,26,28-hexaazaheptacyclo[26.3.1.1~1,3~.1~19,23~.0~10,18~.0~13,17~.0~22,27~]tetratriaconta-10,12,15,17,19(33),20,22,24,26-nonaen-5-one]: the IC50 in the assay on AsPC-1 cells (first value of cell) was determined as 318 nM; in assay [1] (setting [4]), 30.5 nM.
For the compound `O=C1OCCc2c(Cl)cc3[nH]ncc3c2-c2ncc3c(nc(OC[C@@]45CCCN4C[C@H](F)C5)nc3c2F)N2CCC[C@]3(C2)C[C@H](C3)O1` [Example 333, (1R,3S)-10-chloro-32-fluoro-24-(((2R,7aS)-2-fluorotetrahydro-1H-pyrrolo[1,2-a]pyrrol-7a(5H)-yl)methoxy)-4,6-dioxa-13,14,19,23,25,27-hexaazaheptacyclo[25.3.1.1~1,3~.1~18,22~.0~9,17~.0~12,16~.0~21,26~]tritriaconta-9,11,14,16,18(32),19,21,23,25-nonaen-5-one], the IC50 in assay [2] (setting [5]) stood at 127 nM; in assay [3] (TR-FRET binding), 314 nM.
`O[C@H]1C[C@@H]2CN(C1)c1nc(OC[C@@]34CCCN3C[C@H](F)C4)nc3c(F)c(ncc13)-c1c(c(Cl)cc3[nH]ncc13)CCCc1nc2no1` [Example 378, (18R,20S)-9-chloro-31-fluoro-25-(((2R,7aS)~2-fluorotetrahydro-1H-pyrrolo[1,2-α]pyrrol-7a(5H)-yl)methoxy)-15-oxa-5,6,16,22,24,26,30,33-octaazaheptacyclo[25.3.1.1~14,17~.1~18,22~.0~2,10~0~3,7~.0~23,28~]tritriaconta-1(31),2,4,7,9,14(33),16,23,25,27,29-undecaen-20-ol]: the IC50 is 782 nM with AsPC-1 cells (first value of the cell) and 47.7 nM in assay [1] (setting [7]).
Take “(17R,18R)-9-chloro-31-fluoro-25-(((2R,7aS)-2-fluorotetrahydro-1H-pyrrolo[1,2-α]pyrrol-7a(5H)-yl)methoxy)-19,33-dioxa-5,6,15,22,24,26,30-heptaazaheptacyclo[25.3.1.1~13,16~.1~18,22~.0~2,10~.0~3,7~.0~23,28~]tritriaconta-1(31),2,4,7,9,13,15,23,25,27,29-undecaen-17-ol [Example 395]”: the IC50 in assay [2] (setting [5]) was 198 nM; in assay [3] (setting [8]) it was 1170 nM.
For “(185)-9-chloro-31-fluoro-25-(((2R,7a.S)-2-fluorotetrahydro-LH-pyrrolo[1,2-α]pyrrol-7a(5H)-yl)methoxy)-15-oxa-5,6,22,24,26,30,33-heptaazaheptacyclo[25.3.1.1~13,16~1~18,22~0~2,10~.0~3,7~.0~23,28~]tritriaconta-1(31),2,4,7,9,13,16(33),23,25,27,29-undecaene [Example 388]”, the IC50 in assay [1] was found to be 264 nM; in assay [2], 5 nM; in assay [3] (setting [6]), 13 nM.
